The values below come from patent EP1394219A1, “PH sensitive cyanine dyes as reactive fluorescent reagents” (CARNEGIE MELLON UNIVERSITY, priority 1999, dated 2000).

Each structure is given as a SMILES string. Read-outs that look alike come from different tables or passages of the source.

For series [1] the following is noted: phosphate buffer, pH 5.85.
Description: (§1) The pKa was measured as the ratio of emission intensity at the pH measured and the emission intensity for maximum emission, or I/Io. […] The pKa can be calculated to be where I/Io = 0.5 or where the fluorescent probe is 50% protonated.
The nature of series [2]: Fluorescence and UV absorbance properties of the dyes in phosphate buffers of different pH, pKa from emission intensity ratio I/Io. The following applies: for λmax pH 5.00 / λmaxpH 10.00: UV absorbance maximum; for λmax pH 5.00 / λmaxpH 10.00 / λEm(nm): phosphate buffer; for λmaxpH 10.00: pH 10.00; for λEm(nm): fluorescence emission maximum; for pKa: phosphate buffers, pH 5.85.
Description: as §1

For series [3] the following is noted: cited from earlier work; for pKa: product literature value, may be different in a cellular environment.

With `CC1(C)C(=CC=CC2=[N+](CCCCCC(=O)O)c3ccc(S(=O)(=O)[O-])cc3C2(C)C)Nc2ccc(S(=O)(=O)O)cc21` [Compound 3.39], the pKa in series [1] came to 7.75. Further, in series [2], the “λmax pH 5.00” value was 550nm, the “λmaxpH 10.00” value was 476nm and the “λEm(nm)” value worked out at 565nm.
`CC1(C)C(=C/C=C/C=C/C2=[N+](CCCCS(=O)(=O)[O-])c3ccc(CC(=O)O)cc3C2(C)C)Nc2ccc(S(=O)(=O)O)cc21` [Compound 4] yielded a pKa in series [1] of 6.4. Besides, in series [2], the “λmax pH 5.00” value is on record as 650nm, the “λmaxpH 10.00” value is given as 515nm and the “λEm(nm)” value is listed as 665nm.
`CC[N+]1=C(/C=C/C=C/C=C2Nc3ccc(CC(=O)O)cc3C2(C)C)C(C)(C)c2cc(S(=O)(=O)[O-])ccc21` [Compound 5]: the pKa in series [1] is 7.5. Also, in series [2], the “λmax pH 5.00” value was determined as 650nm, the “λmaxpH 10.00” value is listed as 484nm and the “λEm(nm)” value was found to be 665nm.
On to `CC1(C)/C(=C\C=C\c2sc3ccccc3[n+]2CCCCS(=O)(=O)O)Nc2ccc(CC(=O)O)cc21` [Compound 6], for which, in series [2], the “λmax pH 5.00” value was determined as 552nm, the “λmaxpH 10.00” value was determined as 433nm, the “λEm(nm)” value came out at 580nm and the pKa was determined as 9.8.
On the same counts, the results for `CC1(C)\C(=C/C=C/C=C/c2sc3ccccc3[n+]2CCCCCC(=O)O)Nc2ccc(S(=O)(=O)O)cc21` [Compound 7] are 640nm, 531nm, 670nm and 6.85.
On the same counts, the results for `C[N+]1=C(/C=C/C=C/C=C2/Nc3ccc(S(=O)(=O)O)cc3C2(C)C)C(C)(C)c2cc(CN)ccc21` [Compound 8] are 650nm, 531nm, 665nm and 7.25.
With `CC1(C)C(/C=C/C=C/C=C2Nc3ccc4c(S(=O)(=O)O)cc(S(=O)(=O)O)cc4c3C2(C)C)=[N+](CCCCCC(=O)O)c2ccc(S(=O)(=O)[O-])cc21` [Compound 9], the pKa in series [1] is 7.25. Also, in series [2], the “λmax pH 5.00” value is 655nm, the “λmaxpH 10.00” value is 522nm and the “λEm(nm)” value is 680nm.
In series [1], `CC1(C)C(=C/C=C/C=C/C2=[N+](CCCCCC(=O)NN)c3ccc(S(=O)(=O)[O-])cc3C2(C)C)Nc2ccc(S(=O)(=O)O)cc21` [Compound 10] came in with a pKa of 7.5. For the same compound, in series [2], the “λmax pH 5.00” value is on record as 653nm, the “λmaxpH 10.00” value is on record as 501nm and the “λEm(nm)” value is listed as 660nm.
For `c1ccc2c(CN3CCOCC3)c3ccccc3c(CN3CCOCC3)c2c1` [LYSOSENSOR BLUE DND-167], in series [3], the “solubility in DMSO” value was “soluble” and the pKa is 5.1.
Take `CN(C)Cc1c2ccccc2c(CN(C)C)c2ccccc12` [LYSOSENSOR BLUE DND-192]: in series [3], the “solubility in DMSO” value is on record as “soluble” and the pKa is recorded as 7.5.
`CN(C)CCNc1ccc2c3c1cccc3c(=O)n1c3ccccc3nc21` [LYSOSENSOR GREEN DND-153]: in series [3], the “solubility in DMSO” value is “soluble” and the pKa is 7.5.
As to `O=c1c2cccc3c(NCCN4CCOCC4)ccc(c32)c2nc3ccccc3n12` [LYSOSENSOR GREEN DND-189], in series [3], the “solubility in DMSO” value is “soluble” and the pKa was 5.2.
